“Also recorded” adds a separate entry of the source. Read-outs that look alike come from different tables or passages of the source.
Tests used:
[1] = test system: Abeta oligomer-induced membrane trafficking deficits in primary hippocampal neurons; assay: Membrane trafficking/exocytosis (MTT) assay; type: cell-based, rat; conditions: for EC50: Rattus norvegicus, Hippocampal neuron; for Effect on membrane trafficking when dosed alone (words): absence of Abeta oligomers; for Effect against human Alzheimer's patient-derived Abeta oligomers (words): oligomers isolated from AD patient brains
[2] = test system: Na+ channel (site 2) (antagonist radioligand); assay: Receptor panel, inhibition of binding
D3(h) (agonist effect) = D3(h) (agonist effect) (Homo sapiens, UniProt P35462); assay: Receptor panel, block of downstream signaling; type: cell-based
Chain of D3(h) (agonist effect) (P35462 whole entry): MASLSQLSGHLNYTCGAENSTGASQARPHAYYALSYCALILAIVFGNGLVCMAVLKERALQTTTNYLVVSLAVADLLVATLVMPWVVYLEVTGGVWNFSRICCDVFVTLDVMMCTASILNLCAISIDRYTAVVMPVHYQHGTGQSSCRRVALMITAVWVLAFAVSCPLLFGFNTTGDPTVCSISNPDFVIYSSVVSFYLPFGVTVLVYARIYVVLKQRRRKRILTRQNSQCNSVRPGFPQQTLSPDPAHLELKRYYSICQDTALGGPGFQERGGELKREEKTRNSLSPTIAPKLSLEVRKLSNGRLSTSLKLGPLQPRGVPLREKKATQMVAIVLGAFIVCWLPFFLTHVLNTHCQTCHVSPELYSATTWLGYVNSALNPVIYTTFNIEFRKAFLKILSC
Protocol: (§1) It was also tested for its ability to block downstream signaling induced by agonists or antagonists of a given human receptor.

[3] = molecular target: alpha 1A (h) (antagonist effect) (Homo sapiens, UniProt P35348); assay: Receptor panel, block of downstream signaling; type: cell-based; conditions: read-out: % Inhibition of Control
Chain of alpha 1A (h) (antagonist effect) (P35348 whole entry): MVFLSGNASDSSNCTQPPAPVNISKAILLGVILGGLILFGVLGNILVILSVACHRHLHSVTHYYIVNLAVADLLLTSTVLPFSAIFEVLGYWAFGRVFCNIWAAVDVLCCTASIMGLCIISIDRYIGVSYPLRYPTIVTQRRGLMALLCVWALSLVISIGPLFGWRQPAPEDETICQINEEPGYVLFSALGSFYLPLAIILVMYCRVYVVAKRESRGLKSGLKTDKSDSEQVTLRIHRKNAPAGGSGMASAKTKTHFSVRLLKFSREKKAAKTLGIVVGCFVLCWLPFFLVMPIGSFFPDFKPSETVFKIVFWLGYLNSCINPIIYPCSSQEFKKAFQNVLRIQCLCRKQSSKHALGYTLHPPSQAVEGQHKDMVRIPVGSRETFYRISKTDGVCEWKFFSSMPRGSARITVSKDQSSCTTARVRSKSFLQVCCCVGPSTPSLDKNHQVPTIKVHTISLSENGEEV
Protocol: as §1

in vivo = conditions: male, C57BL/6, mouse, sc, 10 mg/kg
From the text: A plasma calibration curve was generated.
Subcutaneous compound administration was accomplished by […]. Per oral administration was accomplished by gastric gavage. Intravenous administration was accomplished via jugular catheter.
A brain calibration curve was generated.

[4] = test system: hAPP transgenic mice (Swedish and London mutations); assay: Morris water maze in hAPP transgenic mice; type: in vivo, mouse; conditions: II 0.5 mg/kg/day; subcutaneous minipump
Protocol: In this study, rather than preventing deficits from occurring, deficits that were already established were treated. These studies were performed pursuant to a service contract by scientists who were blind to the experimental conditions. […]
The swim speed was analyzed as part of the Morris measurements to determine if there were any motor or motivational deficits. Our vehicle is a 5% DMSO/5% Solutol, 90% saline mixture. […] The average of three daily trials on each of four consecutive days were determined.
Escape latency measurements from the Morris water test were taken.
During the final four days of treatment, mice were tested to find the hidden platform in three trials/day. A computerized tracking system automatically quantified escape latency, or swim length.

[5] = test system: SKOV-3 human ovarian cancer cell line; assay: MTS tumor cell viability assay; type: cell-based
[6] = test system: caspase-3 in SKOV-3 human ovarian cancer cells; assay: Caspase-3 activity in tumor cells; type: cell-based
[7] = test system: caspase-3 in neuronal cultures; assay: Caspase-3 activity in neurons; type: cell-based
HepG2 tumor cell line = assay: HepG2 toxicity; type: cell-based; conditions: 10 μM
hERG = hERG (Homo sapiens, UniProt Q12809); assay: hERG inhibition; conditions: 100 nM
Chain of hERG (Q12809 whole entry): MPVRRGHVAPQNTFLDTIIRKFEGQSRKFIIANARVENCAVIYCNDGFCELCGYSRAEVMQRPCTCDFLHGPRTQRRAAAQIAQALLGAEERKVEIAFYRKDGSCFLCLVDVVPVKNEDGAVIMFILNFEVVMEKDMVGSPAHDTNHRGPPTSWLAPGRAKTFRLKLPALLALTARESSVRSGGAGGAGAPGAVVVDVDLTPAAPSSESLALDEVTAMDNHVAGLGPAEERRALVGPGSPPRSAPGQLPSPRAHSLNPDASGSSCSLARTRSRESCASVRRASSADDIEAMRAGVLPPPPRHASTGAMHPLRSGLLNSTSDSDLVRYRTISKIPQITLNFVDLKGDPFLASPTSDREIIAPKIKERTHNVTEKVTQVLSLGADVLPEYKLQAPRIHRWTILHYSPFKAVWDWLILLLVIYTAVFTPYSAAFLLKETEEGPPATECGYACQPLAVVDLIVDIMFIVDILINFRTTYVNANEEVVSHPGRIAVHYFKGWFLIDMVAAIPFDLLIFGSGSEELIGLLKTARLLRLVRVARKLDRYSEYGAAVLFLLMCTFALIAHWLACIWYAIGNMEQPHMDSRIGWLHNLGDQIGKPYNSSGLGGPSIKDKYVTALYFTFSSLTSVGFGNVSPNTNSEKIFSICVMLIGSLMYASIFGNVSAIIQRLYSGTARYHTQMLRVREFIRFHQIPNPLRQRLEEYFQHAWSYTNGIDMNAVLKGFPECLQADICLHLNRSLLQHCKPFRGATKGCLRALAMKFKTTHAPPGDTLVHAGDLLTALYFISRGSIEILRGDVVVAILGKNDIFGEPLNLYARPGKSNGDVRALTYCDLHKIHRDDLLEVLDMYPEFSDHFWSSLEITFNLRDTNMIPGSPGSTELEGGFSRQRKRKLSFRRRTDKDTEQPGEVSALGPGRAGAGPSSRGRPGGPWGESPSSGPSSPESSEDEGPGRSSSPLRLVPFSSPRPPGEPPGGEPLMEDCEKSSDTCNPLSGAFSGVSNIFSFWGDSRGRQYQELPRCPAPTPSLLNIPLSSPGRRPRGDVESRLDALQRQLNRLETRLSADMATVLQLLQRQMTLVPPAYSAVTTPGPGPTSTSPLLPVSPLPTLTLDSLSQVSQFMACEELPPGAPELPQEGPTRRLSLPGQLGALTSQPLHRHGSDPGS

PGP = PGP (Homo sapiens, UniProt P08183); assay: PGP activity; type: in vitro ADME
Chain of PGP (P08183 whole entry): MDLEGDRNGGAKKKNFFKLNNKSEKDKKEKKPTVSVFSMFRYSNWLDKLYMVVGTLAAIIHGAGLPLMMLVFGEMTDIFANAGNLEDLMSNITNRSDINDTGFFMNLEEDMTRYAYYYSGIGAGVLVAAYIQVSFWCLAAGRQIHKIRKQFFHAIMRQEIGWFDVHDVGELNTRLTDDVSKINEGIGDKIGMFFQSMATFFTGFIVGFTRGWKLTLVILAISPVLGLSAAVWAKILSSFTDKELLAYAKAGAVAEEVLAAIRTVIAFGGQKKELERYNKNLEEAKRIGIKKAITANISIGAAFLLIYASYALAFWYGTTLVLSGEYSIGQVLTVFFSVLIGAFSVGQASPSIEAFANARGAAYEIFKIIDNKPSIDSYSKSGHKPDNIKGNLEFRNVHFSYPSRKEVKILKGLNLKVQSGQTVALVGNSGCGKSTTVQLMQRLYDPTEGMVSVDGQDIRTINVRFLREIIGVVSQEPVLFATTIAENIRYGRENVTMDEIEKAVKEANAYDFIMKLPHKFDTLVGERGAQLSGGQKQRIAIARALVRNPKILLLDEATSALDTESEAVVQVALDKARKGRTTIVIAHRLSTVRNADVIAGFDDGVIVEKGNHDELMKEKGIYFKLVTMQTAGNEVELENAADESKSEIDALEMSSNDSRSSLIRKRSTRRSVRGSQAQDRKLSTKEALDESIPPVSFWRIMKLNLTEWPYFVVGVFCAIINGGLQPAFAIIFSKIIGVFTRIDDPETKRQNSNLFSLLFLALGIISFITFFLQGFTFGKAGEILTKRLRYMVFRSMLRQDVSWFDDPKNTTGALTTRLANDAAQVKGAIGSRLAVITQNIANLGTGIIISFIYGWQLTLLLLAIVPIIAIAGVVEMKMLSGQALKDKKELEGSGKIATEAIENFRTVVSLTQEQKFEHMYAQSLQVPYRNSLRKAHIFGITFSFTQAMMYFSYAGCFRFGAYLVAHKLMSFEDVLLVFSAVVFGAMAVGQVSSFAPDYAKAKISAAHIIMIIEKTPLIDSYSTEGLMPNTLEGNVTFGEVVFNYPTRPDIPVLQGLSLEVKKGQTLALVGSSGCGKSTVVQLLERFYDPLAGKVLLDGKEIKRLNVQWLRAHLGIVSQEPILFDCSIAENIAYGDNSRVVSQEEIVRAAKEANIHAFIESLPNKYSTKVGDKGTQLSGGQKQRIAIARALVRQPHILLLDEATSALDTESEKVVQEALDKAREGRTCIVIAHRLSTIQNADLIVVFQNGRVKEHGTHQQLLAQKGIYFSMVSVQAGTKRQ

sigma-2 receptor [8] = conditions: 1 μM each; 18.4 nM [3H]-RHM-1
[9] = Genotoxicity (AMES, micronucleus, bacterial cytotox); conditions: 10 μM
sigma-2 receptor [10] = molecular target: T1, sigma-2 receptor (Rattus norvegicus, UniProt Q5U3Y7); assay: Competitive Radioligand Binding Assay 2, sigma-2, rat liver membrane homogenates; parameters: conducted using rat liver membrane homogenates; from tissue; host or cells: rat liver membrane homogenates; conditions: read-out: Ki at sigma-2 receptors
T1 sequence (Q5U3Y7 1-176): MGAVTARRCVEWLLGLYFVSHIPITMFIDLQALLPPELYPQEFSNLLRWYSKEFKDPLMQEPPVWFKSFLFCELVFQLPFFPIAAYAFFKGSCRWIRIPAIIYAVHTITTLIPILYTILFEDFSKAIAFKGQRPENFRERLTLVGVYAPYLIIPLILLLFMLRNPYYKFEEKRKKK
Protocol: Test compounds were dissolved in N,N-Dimethylformamide (DMF), dimethyl sulfoxide (DMSO) or ethanol and then diluted in 50 mM Tris-HCl pH 7.4 buffer containing 150 mM NaCl and 100 mM EDTA. Membrane homogenates were made from guinea pig brain for sigma-1 binding assay and rat liver for sigma-2 binding assay. Membrane homogenates were diluted with 50 mM Tris-HCl buffer, pH 8.0 and incubated at 25° C. in a total volume of 150 uL in 96 well plates with the radioligand and test compounds with concentrations ranging from 0.1 nM to 10 uM. After incubation was completed, the reactions were terminated by the addition of 150 uL of ice-cold wash buffer (10 mM Tris HCl, 150 mM NaCl, pH 7.4) using a 96 channel transfer pipette (Fisher Scientific, Pittsburgh, Pa.) and the samples harvested and filtered rapidly through 96 well fiber glass filter plate (Millipore, Billerica, Mass.) that had been presoaked with 100 uL of 50 mM Tris-HCl buffer. Each filter was washed four times with 200 uL of ice-cold wash buffer (10 mM Tris-HCl, 150 mM NaCl, pH 7.4).
The binding affinity, Ki values was calculated using the method of Cheng and Prusoff.

sigma-2 receptor [11] = molecular target: T1, sigma-2 receptor; assay: Sigma-2 competitive radioligand binding, [3H]DTG with 300 nM (+)pentazocine, rat cerebral cortex membranes
Protocol: Reactions were terminated by rapid filtration through Whatman GF/C filters using a Brandel 12R cell harvester followed by two washes with ice-cold buffer. Radioactivity on the dried filter discs was measured using a liquid scintillation analyzer (Tri-Carb 2900TR; PerkinElmer Life and Analytical Sciences). The displacement curves were plotted and the Ki values of the test ligands for the receptor subtypes were determined using GraphPad Prism (GraphPad Software Inc., San Diego, Calif.). The percentage specific binding was determined by dividing the difference between total bound (disintegrations per minute) and nonspecific bound (disintegrations per minute) by the total bound (disintegrations per minute).

COc1cc(CCC(C)NCc2ccc(C(F)(F)F)cc2)ccc1O (stereo not drawn) [Compound II]
Effect on Abeta oligomer trafficking deficits over the concentrations tested [1]: blocks oligomer-induced trafficking deficits at all concentrations tested
Max Inhibition of Abeta (%) [1]: 68%
Ki ([1]; Km for Abeta = 0.4 uM, assay concentr. 3 μM total Abeta, read-out: Calculated Ki): 260 nM
EC50 ([1]; Table 11A, read-out: Block Aβ-induced membrane trafficking deficits EC50): 2200 nM
EC50 ([1]; Table 11B, read-out: Inhibition Abeta oligomer-induced Membrane Trafficking EC50): 2200 nM
EC50 ([1]; Table 12, read-out: EC50): 2200 nM
EC50 ([1]; added after oligomers (treatment mode), read-out: EC50 blocking oligomer effects): 4100 nM
EC50 ([1]; added before oligomers (prevention mode), read-out: EC50 blocking oligomer effects): 2200 nM
Functional Neuronal Phenotype ([1]; Table 11B): Antagonist
Effect on membrane trafficking when dosed alone (words) [1]: no significant effect on membrane trafficking
Effect on membrane trafficking when dosed alone (words) ([1]; listed as compound II): does not affect membrane trafficking
Cpd alone at Ki ([1]; compound without Abeta oligomers): +1%
Max Inhib. of Abeta (Conc) ([1]; concentration in brackets): 85% (10)
Effect against human Alzheimer's patient-derived Abeta oligomers (words) [1]: completely eliminated
Effect against human Alzheimer's patient-derived Abeta oligomers (words) ([1]; listed as compound II): rightward shift; also recorded: blocks the membrane trafficking deficits
Schild slope ([1]; synthetic Abeta oligomers): −0.75
Assay effects in the absence of Aβ ([1]; trafficking or synapse number without Abeta oligomer): No
% Inhibition of Control ([2]; Compound II 10 uM): 54%
Other Targets: Na + ch2 ([2]; Table 11E): Na + ch2 (2 uM)
Other Targets: D3 (D3(h) (agonist effect); Table 11E): D3 (4 uM), Mu
inhibition at 10 µM (D3(h) (agonist effect); read-out: % Inhibition of Control): 66%
inhibition at 10 µM [3]: 56%
AUC (in vivo): 385 ng·h/mL
Cmax (in vivo): 279 ng/mL
Tmax (in vivo): 30 min
Morris water maze performance versus vehicle-treated transgenic animals [4]: significant improvement in transgenic performance
IC50 ([5]; Homo sapiens, SK-OV-3, tumor cell viability, 48 hrs): 150000 ± 12000 nM
Action ([5]; by EC50 relative to siramesine): Antagonist
Block of SV-119-induced caspase-3 activation in tumor cells [6]: do not block caspase-3 activation
Caspase-3 activity induced in tumor cells [6]: did not induce caspase-3 activity
Block of SV-119-induced caspase-3 activation in neurons [7]: blocked caspase-3 activation
Caspase-3 activity induced in neurons [7]: did not induce caspase-3 activity
HepG2 toxicity (HepG2 tumor cell line): 66%
hERG inhibition (hERG): 24%
IC50 (PGP): > 30000 nM
Displacement of [3H]-RHM-1 (sigma-2 receptor [8]): partially displace
Genotoxicity [9]: no genotoxicity
Ki (sigma-2 receptor [10]): 59.7 nM
Ki (sigma-2 receptor [11]; Ki at sigma-2 receptors, displacement of [3H]DTG/300 nM (+)-pentazocine, rat neocortex homogenate): 9 nM
Ki (sigma-2 receptor [11]; S2 binding Ki (nM), Table 11B): 9 nM
Ki (sigma-2 receptor [11]; Sigma 2 Binding Ki (nM), Table 2, own compounds): 9 nM
Ki (sigma-2 receptor [11]; Sigma Affinity (S2) nM, Table 11E, own compounds): 9 nM

Reference: patent publication US20140378460A1, “COMPOSITIONS AND METHODS FOR TREATING NEURODEGENERATIVE DISEASE” (COGNITION THERAPEUTICS, INC., priority 2011, published 2014)
